Measurements reported in PubChem BioAssay AID330 (DTP/NCI, 2004).
Several values for one entry are separate records, joined by “and”; a condition that tells them apart may be missing. Equal entries are not always repeated. Toxic doses and inconclusive results are not listed.

Tested on: P388 leukemia ip, CD2F1 mice, survival T/C
Test: NCI In Vivo Anticancer Drug Screen. Data for tumor model P388 Leukemia (intraperitoneal) in CD2F1 (CDF1) mice
Conditions: endpoint: median survival time, higher = longer survival
Summary of the method: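 Mice carrying the transplanted tumor received test compound or vehicle. Survival was recorded in each group, and the value is the treated-group measurement divided by that of the vehicle-treated control group.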

[1] = dose: 100.0 mg/kg/injection, schedule: Q01DX001 (ip), vehicle: saline with Tween-80
[2] = dose: 200.0 mg/kg/injection, schedule: Q01DX001 (ip), vehicle: saline with Tween-80
[3] = dose: 400.0 mg/kg/injection, schedule: Q01DX001 (ip), vehicle: saline with Tween-80
[4] = dose: 25.0 mg/kg/injection, schedule: Q01DX009 (ip), vehicle: saline
[5] = dose: 50.0 mg/kg/injection, schedule: Q01DX009 (ip), vehicle: saline
[6] = dose: 100.0 mg/kg/injection, schedule: Q01DX009 (ip), vehicle: saline
[7] = dose: 50.0 mg/kg/injection, schedule: Q01DX009 (ip), vehicle: saline with Tween-80
[8] = dose: 100.0 mg/kg/injection, schedule: Q01DX009 (ip), vehicle: saline with Tween-80
[9] = dose: 200.0 mg/kg/injection, schedule: Q01DX009 (ip), vehicle: saline with Tween-80
[10] = dose: 25.0 mg/kg/injection, schedule: Q01DX009 (ip), vehicle: saline with Tween-80

For `CCC(c1ccc(OC)cc1)C(NCC(=O)NNC(=S)NCc1ccccc1)c1ccc(OC)cc1` (stereo unspecified), the T/C [1] was 92 % of control, the T/C [2] was 99 % of control and the T/C [3] was 99 % of control.
With `O=C(Nc1ccc(Cl)cc1)/C(Cl)=C1/Sc2ccccc2NC1=O` the T/C [1] was 97 % of control, the T/C [2] was 91 % of control and the T/C [3] was 91 % of control.
With `CC(=O)c1ccc2c(c1)-c1ccccc1C(=O)C2=O` the T/C [4] was 98 % of control, the T/C [5] was 106 % of control and 110 % of control and the T/C [6] was 113 % of control and 119 % of control.
In the case of `O=C1OCCCCCCOC(=O)c2ccccc2SSc2ccccc21`, the T/C (dose: 12.5 mg/kg/injection, schedule: Q01DX001 (ip), vehicle: saline with Tween-80) is reported as 101 % of control, the T/C (dose: 25.0 mg/kg/injection, schedule: Q01DX001 (ip), vehicle: saline with Tween-80) is reported as 94 % of control and the T/C (dose: 50.0 mg/kg/injection, schedule: Q01DX001 (ip), vehicle: saline with Tween-80) is reported as 94 % of control. For the same molecule, the T/C [2] was 88 % of control and the T/C [3] was 90 % of control.
`CC1SC(=O)NN=C1c1ccccc1` (stereo unspecified) was tested, and the T/C [7] was 94 % of control, the T/C [8] was 97 % of control and the T/C [9] was 106 % of control.
In the case of `Cc1[nH]c2cc(Br)c(Br)cc2c1/C=N/NC(N)=S`, the T/C (dose: 50.0 mg/kg/injection, schedule: Q01DX001 (ip), vehicle: Klucel (hydroxypropylcellulose) (HPC)) is reported as 100 % of control, the T/C (dose: 100.0 mg/kg/injection, schedule: Q01DX001 (ip), vehicle: Klucel (hydroxypropylcellulose) (HPC)) is reported as 96 % of control and the T/C (dose: 200.0 mg/kg/injection, schedule: Q01DX001 (ip), vehicle: Klucel (hydroxypropylcellulose) (HPC)) is reported as 92 % of control.
In the case of `O=C(O)C1C2CC3CC2C(C3)C1C(=O)O` (stereo unspecified), the T/C (dose: 60.0 mg/kg/injection, schedule: Q01DX005 (ip), vehicle: Klucel (hydroxypropylcellulose) (HPC)) is reported as 100 % of control, the T/C (dose: 120.0 mg/kg/injection, schedule: Q01DX005 (ip), vehicle: Klucel (hydroxypropylcellulose) (HPC)) is reported as 100 % of control and the T/C (dose: 240.0 mg/kg/injection, schedule: Q01DX005 (ip), vehicle: Klucel (hydroxypropylcellulose) (HPC)) is reported as 99 % of control.
In the case of `Cc1ccc(Cl)c([N+](=O)[O-])c1N`, the T/C (dose: 100.0 mg/kg/injection, schedule: Q04DX003 (ip), vehicle: saline with Tween-80) is reported as 104 % of control and the T/C (dose: 200.0 mg/kg/injection, schedule: Q04DX003 (ip), vehicle: saline with Tween-80) is reported as 104 % of control.
With `Nc1nc(=O)[nH]s1` the T/C (dose: 6.25 mg/kg/injection, schedule: Q01DX009 (ip), vehicle: saline with Tween-80) was 98 % of control, the T/C (dose: 12.5 mg/kg/injection, schedule: Q01DX009 (ip), vehicle: saline with Tween-80) was 87 % of control and 94 % of control and the T/C [8] was 95 % of control. The T/C [9] was 90 % of control.
With `[C-]#Cc1ccccc1.[C-]#Cc1ccccc1.[Cu+2]` the T/C (dose: 12.5 mg/kg/injection, schedule: Q04DX003 (ip), vehicle: saline with Tween-80) was 91 % of control, the T/C (dose: 25.0 mg/kg/injection, schedule: Q04DX003 (ip), vehicle: saline with Tween-80) was 86 % of control and the T/C (dose: 50.0 mg/kg/injection, schedule: Q04DX003 (ip), vehicle: saline with Tween-80) was 87 % of control.
`Cc1ccccc1-[n+]1nc(-c2ccccc2)nn1-c1ccccc1` was tested, and the T/C (dose: 0.31 mg/kg/injection, schedule: Q01DX009 (ip), vehicle: saline with Tween-80) was 95 % of control, the T/C (dose: 0.63 mg/kg/injection, schedule: Q01DX009 (ip), vehicle: saline with Tween-80) was 104 % of control and the T/C (dose: 1.25 mg/kg/injection, schedule: Q01DX009 (ip), vehicle: saline with Tween-80) was 95 % of control.
In the case of `CN(C)c1cc[n+](C=O)cc1`, the T/C (dose: 3.75 mg/kg/injection, schedule: Q01DX005 (ip), vehicle: saline) is reported as 102 % of control, the T/C (dose: 7.5 mg/kg/injection, schedule: Q01DX005 (ip), vehicle: saline) is reported as 95 % of control and the T/C (dose: 15.0 mg/kg/injection, schedule: Q01DX005 (ip), vehicle: saline) is reported as 100 % of control.
In the case of `C1CCCC2(CC1)OCCO2`, the T/C (dose: 100.0 mg/kg/injection, schedule: Q04DX003 (ip), vehicle: saline) is reported as 101 % of control, the T/C (dose: 200.0 mg/kg/injection, schedule: Q04DX003 (ip), vehicle: saline) is reported as 97 % of control and the T/C (dose: 400.0 mg/kg/injection, schedule: Q04DX003 (ip), vehicle: saline) is reported as 98 % of control.
For `COc1cc2c(cc1OC)-c1c(C)c3ccc(OC)c(NCCN)c3c[n+]1CC2`, the T/C (dose: 6.25 mg/kg/injection, schedule: Q04DX003 (ip), vehicle: water) was 110 % of control, the T/C (dose: 12.5 mg/kg/injection, schedule: Q04DX003 (ip), vehicle: water) was 91 % of control and the T/C (dose: 25.0 mg/kg/injection, schedule: Q04DX003 (ip), vehicle: water) was 101 % of control.
For `Cc1cccc(OCC(O)CN2CC2)c1` (stereo unspecified), the T/C [1] was 112 % of control, the T/C [2] was 120 % of control and the T/C [3] was 103 % of control.
For `CO[C@@]12[C@H](COC(N)=O)C3=C(C(=O)C(C)=C(N)C3=O)N1C[C@H]1[C@@H]2N1C(=O)[C@@H]1N2C(=O)[C@@H](NC(=O)Cc3ccccc3)[C@H]2SC1(C)C`, the T/C (dose: 6.25 mg/kg/injection, schedule: Q01DX009 (ip), vehicle: saline) was 116 % of control, the T/C (dose: 12.5 mg/kg/injection, schedule: Q01DX009 (ip), vehicle: saline) was 155 % of control and the T/C [4] was 155 % of control. The T/C [5] was 165 % of control.
With `O=C(N/N=C/c1cc(Cl)ccc1O)C(=O)N/N=C/c1cc(Cl)ccc1O` the T/C (dose: 50.0 mg/kg/injection, schedule: Q01DX009 (ip), vehicle: water) was 92 % of control, the T/C (dose: 100.0 mg/kg/injection, schedule: Q01DX009 (ip), vehicle: water) was 92 % of control and the T/C (dose: 200.0 mg/kg/injection, schedule: Q01DX009 (ip), vehicle: water) was 100 % of control.
`NC1C(N)C(N)C1N` (stereo unspecified) was tested, and the T/C (dose: 12.5 mg/kg/injection, schedule: Q01DX005 (ip), vehicle: water) was 102 % of control, the T/C (dose: 25.0 mg/kg/injection, schedule: Q01DX005 (ip), vehicle: water) was 102 % of control and the T/C (dose: 50.0 mg/kg/injection, schedule: Q01DX005 (ip), vehicle: water) was 102 % of control. For the same molecule, the T/C (dose: 100.0 mg/kg/injection, schedule: Q01DX005 (ip), vehicle: water) was 98 % of control and the T/C (dose: 200.0 mg/kg/injection, schedule: Q01DX005 (ip), vehicle: water) was 94 % of control.
With `Cc1ccc(S(=O)(=O)N2CCN(S(=O)(=O)c3ccc(C)cc3)COC2)cc1` the T/C (dose: 60.0 mg/kg/injection, schedule: Q01DX005 (ip), vehicle: saline with Tween-80) was 102 % of control, the T/C (dose: 120.0 mg/kg/injection, schedule: Q01DX005 (ip), vehicle: saline with Tween-80) was 97 % of control and the T/C (dose: 240.0 mg/kg/injection, schedule: Q01DX005 (ip), vehicle: saline with Tween-80) was 104 % of control.
In the case of `Nc1c(Cl)c(Cl)nc(C(=O)O)c1Cl`, the T/C (dose: 25.0 mg/kg/injection, schedule: Q01DX009 (ip), vehicle: Klucel (hydroxypropylcellulose) (HPC)) is reported as 101 % of control, the T/C [10] is reported as 102 % of control and the T/C (dose: 50.0 mg/kg/injection, schedule: Q01DX009 (ip), vehicle: Klucel (hydroxypropylcellulose) (HPC)) is reported as 86 % of control. The T/C [7] was 100 % of control, the T/C (dose: 100.0 mg/kg/injection, schedule: Q01DX009 (ip), vehicle: Klucel (hydroxypropylcellulose) (HPC)) was 93 % of control and the T/C [8] was 100 % of control. For the same molecule, the T/C (dose: 200.0 mg/kg/injection, schedule: Q01DX009 (ip), vehicle: Klucel (hydroxypropylcellulose) (HPC)) was 93 % of control, the T/C [9] was 111 % of control and the T/C (dose: 400.0 mg/kg/injection, schedule: Q01DX009 (ip), vehicle: saline with Tween-80) was 115 % of control.
With `CC(=O)OC1CCC2(C)C(=CCC3C4CC(C5(O)C(=O)Nc6ccccc65)C(=O)C4(C)CCC32)C1` (stereo unspecified) the T/C [10] was 102 % of control, the T/C [7] was 93 % of control and the T/C [8] was 94 % of control.
With `Cc1ccc(S(=O)(=O)Nc2ccccc2N(CCNCCOS(=O)(=O)c2ccc(C)cc2)S(=O)(=O)c2ccc(C)cc2)cc1` the T/C (dose: 100.0 mg/kg/injection, schedule: Q04DX002 (ip), vehicle: saline with Tween-80) was 96 % of control, the T/C (dose: 200.0 mg/kg/injection, schedule: Q04DX002 (ip), vehicle: saline with Tween-80) was 98 % of control and the T/C (dose: 400.0 mg/kg/injection, schedule: Q04DX002 (ip), vehicle: saline with Tween-80) was 91 % of control.
`Nc1nc(N)c2c(n1)NCN(O)C2` was tested, and the T/C (dose: 50.0 mg/kg/injection, schedule: Q01DX005 (ip), vehicle: saline with Tween-80) was 97 % of control, the T/C (dose: 100.0 mg/kg/injection, schedule: Q01DX005 (ip), vehicle: saline with Tween-80) was 99 % of control and the T/C (dose: 200.0 mg/kg/injection, schedule: Q01DX005 (ip), vehicle: saline with Tween-80) was 100 % of control.
`Cn1c([N+](=O)[O-])cnc1/C=[N+](\[O-])C1CCCCC1` was tested, and the T/C [5] was 100 % of control, the T/C [6] was 100 % of control and the T/C (dose: 200.0 mg/kg/injection, schedule: Q01DX009 (ip), vehicle: saline) was 102 % of control.
In the case of `O=C(O)c1cc(C(=O)CCCCC(=O)c2cc(C(=O)O)c(O)c3ccccc23)c2ccccc2c1O`, the T/C [7] is reported as 90 % of control, the T/C [8] is reported as 90 % of control and the T/C [9] is reported as 92 % of control.
